Data on 24 compounds can be found in US8946446B2, “Pyrrolo sulfonamide compounds for modulation of orphan nuclear receptor RAR-related orphan receptor-γ (ROR-γ, NR1F3) activity and for the treatment of chronic inflammatory and autoimmune diseases” (Phenex Pharmaceuticals AG, priority 2011, dated 2015).

The assay addresses T1, RORγ ligand binding domain (LBD) (Homo sapiens, UniProt P51449).
T1 construct: made in house; host or cells: E. coli BL-21 (BL3), vector pDEST15
T1 sequence (P51449 269-508 limits assumed): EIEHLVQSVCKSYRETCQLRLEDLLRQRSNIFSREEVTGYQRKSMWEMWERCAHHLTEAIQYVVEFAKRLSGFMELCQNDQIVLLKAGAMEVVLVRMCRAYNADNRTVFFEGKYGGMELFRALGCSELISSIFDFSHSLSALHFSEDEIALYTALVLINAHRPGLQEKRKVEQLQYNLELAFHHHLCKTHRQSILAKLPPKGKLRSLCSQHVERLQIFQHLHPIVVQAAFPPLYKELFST
As to the kind of experiment: TR-FRET Activity Assay (ligand sensing, RORγ-LBD / coactivator peptide interaction). In kind it is biochemical. An excerpt:
This method measures the ability of putative ligands to modulate the interaction between the purified bacterial expressed RORγ ligand binding domain (LBD) and synthetic N-terminally biotinylated peptides which are derived from nuclear receptor coactivator proteins such as but not limited to SRC1 (NcoA1), SRC2 (NcoA2, TIF2), SRC3 (NcoA3), PGC1α, PGC1β, CBP, GRIP1, TRAP220, RIP140.
The ligand-binding domain (LBD) of RORγ was expressed as fusion protein with GST in […] cells using the vector pDEST15. Cells were lysed by lysozyme-treatment and sonication, and the fusion proteins purified over glutathione sepharose (Pharmacia) according to the manufacturers instructions. For screening of compounds for their influence on the RORγ-peptide interaction, the LANCE technology (Perkin Elmer) was applied. This method relies on the binding dependent energy transfer from a donor to an acceptor fluorophor attached to the binding partner of interest. For ease of handling and reduction of background from compound fluorescence LANCE technology makes use of generic fluorophore labels and time resolved detection assays were done in a final volume of 25 μL in a 384 well plate, in a Tris-based buffer system (20 mM Tris-HCl pH6.8; 60 mM KCl, 1 mM DTT; 5 mM MgCl2; 35 ng/μL BSA), containing 20-60 ng/well recombinantly expressed RORγ-LBD fused to GST, 200-600 nM N-terminally biotinylated peptide, 200 ng/well Streptavidin-xIAPC conjugate (Prozyme) and 6-10 ng/well Eu W1024-antiGST (Perkin Elmer). DMSO content of the samples was kept at 1%.
After generation of the Tris-based buffer system, the potentially RORγ modulating ligands were diluted. […] The LANCE signal was detected by a Perkin Elmer EnVision™ Multilabel Counter. The results were visualized by plotting the ratio between the emitted light at 665 nm and 615 nm. […] Ligands that promote the complex formation induce a concentration-dependent increase in time-resolved fluorescent signal.
The normalised TR-FRET assay values, using the following equation: 1000*665 nm measurement value/615 nm measurement value, were transferred to the program GraphPad Prism to generate graphs and dose response curves using the following equation:
Equation: Sigmoidal Dose-Response (Variable Slope) Y=Bottom+(Top-Bottom)/(1+10^((LogEC50−X)*HillSlope)) X is the logarithm of the concentration. Y is the response. Y starts at Bottom and goes to Top with a sigmoidal shape.
This is identical to the “four parameter logistic equation”. The IC50 values are calculated using this equation.

Where [1] appears, read: read-out: RORγ activity in the TR-FRET Activity Assay (IC50 FRET), Group.

Molecules are shown by their SMILES. pIC50: −log10 of the molar value. Like-named read-outs stand apart in the source and are kept apart here.

Turning to `Cc1c(S(N)(=O)=O)cc(-c2cc(OCCCC(=O)O)cc(C(C)(C)C)c2)n1CC1CCCCC1` [Example 16, 4-(3-(tert-Butyl)-5-(1-(cyclohexylmethyl)-5-methyl-4-sulfamoyl-1H-pyrrol-2-yl)phenoxy)butanoic acid], the pIC50 under setting [1] was less than 5.70.

Turning to `Cc1c(S(N)(=O)=O)cc(-c2cc(OCC(C)C)nc(C(C)(C)C)c2)n1CC1CCCCC1` [Example 17, 5-(2-tert-Butyl-6-isobutoxypyridin-4-yl)-1-(cyclohexylmethyl)-2-methyl-1H-pyrrole-3-sulfonamide], the pIC50 under setting [1] was greater than 6.30.

In the case of `Cc1c(S(N)(=O)=O)cc(-c2cc(C(C)(C)C)nc(C(C)(C)C)c2)n1CC1CCCCC1` [Example 18, 1-(Cyclohexylmethyl)-5-(2,6-di-tert-butylpyridin-4-yl)-2-methyl-1H-pyrrole-3-sulfonamide], the negative logarithm of the IC50 (pIC50) under setting [1] is greater than 6.30.

For `Cc1c(S(N)(=O)=O)cc(-c2cc(C(=O)NC(C)(C)C)nc(C(C)(C)C)c2)n1CC1CCCCC1` [Example 20, N,6-Di-tert-butyl-4-(1-(cyclohexylmethyl)-5-methyl-4-sulfamoyl-1H-pyrrol-2-yl)picolinamide], the negative logarithm of the IC50 (pIC50) under setting [1] is 5.70 to 6.30.

For `Cn1c(S(N)(=O)=O)cc(-c2cc(C(C)(C)C)cc(C(C)(C)C)c2)c1CC1CCCCC1` [Example 25, 5-(Cyclohexylmethyl)-4-(3,5-di-tert-butylphenyl)-1-methyl-1H-pyrrole-2-sulfonamide], the pIC50 under setting [1] is less than 5.70.

For `CC(C)(C)c1cc(-c2cc(S(N)(=O)=O)cn2CC2CCCCC2)cc(C(C)(C)C)c1` [Example 28, 1-(Cyclohexylmethyl)-5-(3,5-di-tert-butylphenyl)-1H-pyrrole-3-sulfonamide], under setting [1], the negative logarithm of the IC50 (pIC50) is greater than 6.30.

On to `CC(C)(C)c1cc(-c2cc(S(N)(=O)=O)c(Cl)n2CC2CCCCC2)cc(C(C)(C)C)c1` [Example 29, 2-Chloro-1-(cyclohexylmethyl)-5-(3,5-di-tert-butylphenyl)-1H-pyrrole-3-sulfonamide], for which the pIC50 under setting [1] was greater than 6.30.

`CC(C)(C)c1cc(-c2c(Cl)c(S(N)(=O)=O)c(Cl)n2CC2CCCCC2)cc(C(C)(C)C)c1` [Example 30, 2,4-Dichloro-1-(cyclohexylmethyl)-5-(3,5-di-tert-butylphenyl)-1H-pyrrole-3-sulfonamide]: the pIC50 under setting [1] is 5.70 to 6.30.

For the compound `CC(C)(C)c1cc(-c2cc(S(N)(=O)=O)c(Br)n2CC2CCCCC2)cc(C(C)(C)C)c1` [Example 31, 2-Bromo-1-(cyclohexylmethyl)-5-(3,5-di-tert-butylphenyl)-1H-pyrrole-3-sulfonamide], the negative logarithm of the IC50 (pIC50) under setting [1] is greater than 6.30.

Turning to `CC(C)(C)c1cc(-c2c(Br)c(S(N)(=O)=O)c(Br)n2CC2CCCCC2)cc(C(C)(C)C)c1` [Example 32, 2,4-Dibromo-1-(cyclohexylmethyl)-5-(3,5-di-tert-butylphenyl)-1H-pyrrole-3-sulfonamide], the pIC50 under setting [1] was 5.70 to 6.30.

For the compound `CC(C)(C)c1cc(-c2cc(S(N)(=O)=O)c(C#N)n2CC2CCCCC2)cc(C(C)(C)C)c1` [Example 33, 2-Cyano-1-(cyclohexylmethyl)-5-(3,5-di-tert-butylphenyl)-1H-pyrrole-3-sulfonamide], under setting [1], the pIC50 was greater than 6.30.

In the case of `Cc1c(S(N)(=O)=O)cc(-c2cc(C(F)(F)F)c(=O)n(CC(C)(C)C)c2)n1CC1CCCCC1` [Example 34, 1-(Cyclohexylmethyl)-2-methyl-5-(1-neopentyl-6-oxo-5-(trifluoromethyl)-1,6-dihydropyridin-3-yl)-1H-pyrrole-3-sulfonamide], the pIC50 under setting [1] was less than 5.70.

Turning to `Cc1c(S(N)(=O)=O)cc(-c2cc(C(C)(C)O)c3c(c2)C2(CCO3)CC2)n1CC1CCCCC1` [Example 37, 1-(Cyclohexylmethyl)-5-(8-(2-hydroxypropan-2-yl)spiro[chroman-4,1′-cyclopropan]-6-yl)-2-methyl-1H-pyrrole-3-sulfonamide], the pIC50 under setting [1] was less than 5.70.

Consider `Cc1c(S(=O)(=O)NCCC(=O)O)cc(-c2cc(C(C)(C)C)cc(C(C)(C)C)c2)n1CC1CCCCC1` [Example 39, 3-(1-(Cyclohexylmethyl)-5-(3,5-di-tert-butylphenyl)-2-methyl-1H-pyrrole-3-sulfonamido)propanoic acid], for which the pIC50 under setting [1] was 5.70 to 6.30.

As to `Cc1c(S(=O)(=O)NCCC(N)=O)cc(-c2cc(C(C)(C)C)cc(C(C)(C)C)c2)n1CC1CCCCC1` [Example 40, 3-(1-(cyclohexylmethyl)-5-(3,5-di-tert-butylphenyl)-2-methyl-1H-pyrrole-3-sulfonamido)propanamide], the pIC50 under setting [1] is greater than 6.30.

Turning to `Cc1c(S(=O)(=O)NCCC(N)=O)c(Cl)c(-c2cc(C(C)(C)C)cc(C(C)(C)C)c2)n1CC1CCCCC1` [Example 41, 3-(4-chloro-1-(cyclohexylmethyl)-5-(3,5-di-tert-butylphenyl)-2-methyl-1H-pyrrole-3-sulfonamido)propanamide], under setting [1], the pIC50 is greater than 6.30.

Regarding `Cc1c(S(=O)(=O)NCC(=O)O)cc(-c2cc(C(C)(C)C)cc(C(C)(C)C)c2)n1CC1CCCCC1` [Example 43, 2(1-(Cyclohexylmethyl)-5(3,5-di-tert-butylphenyl)-2-methyl-1H-pyrrole-3-sulfonamido)acetic acid], the pIC50 under setting [1] is less than 5.70.

As to `Cc1c(S(=O)(=O)N2CCOCC2)cc(-c2cc(C(C)(C)C)cc(C(C)(C)C)c2)n1CC1CCCCC1` [Example 44, 4-((1-(Cyclohexylmethyl)-5-(3,5-di-tert-butylphenyl)-2-methyl-1H-pyrrol-3-yl)sulfonyl)morpholine], the pIC50 under setting [1] was greater than 6.30.

In the case of `Cc1c(S(N)(=O)=O)cc(-c2cc(C(C)(C)C)cc(C(C)(C)C#N)c2)n1CC1CCCCC1` [Example 45, 5-(3-(tert-Butyl)-5-(2-cyanopropan-2-yl)phenyl)-1-(cyclohexylmethyl)-2-methyl-1H-pyrrole-3-sulfonamide], under setting [1], the pIC50 is 5.70 to 6.30.

Turning to `Cc1c(S(N)(=O)=O)cc(-c2cc(C(C)(C)C)cc(C(C)(C)C(=O)O)c2)n1CC1CCCCC1` [Example 46, 2-(3-(tert-Butyl)-5-(1-(cyclohexylmethyl)-5-methyl-4-sulfamoyl-1H-pyrrol-2-yl)phenyl)-2-methylpropanoic acid], under setting [1], the pIC50 was less than 5.70.

In the case of `Cc1c(S(N)(=O)=O)cc(-c2cc(C(C)(C)C)cc(C(C)(C)CN)c2)n1CC1CCCCC1` [Example 48, 5-(3-(1-Amino-2-methylpropan-2-yl)-5-(tert-butyl)phenyl)-1-(cyclohexyl-methyl)-2-methyl-1H-pyrrole-3-sulfonamide], the negative logarithm of the IC50 (pIC50) under setting [1] is less than 5.70.

As for `CC(=O)NCC(C)(C)c1cc(-c2cc(S(N)(=O)=O)c(C)n2CC2CCCCC2)cc(C(C)(C)C)c1` [Example 49, N-(2-(3-(tert-Butyl)-5-(1-(cyclohexylmethyl)-5-methyl-4-sulfamoyl-1H-pyrrol-2-yl)phenyl)-2-methylpropyl)acetamide], under setting [1], the pIC50 was less than 5.70.

Take `Cc1c(S(N)(=O)=O)cc(-c2cc(C(C)(C)C)cc(C(C)(C)CO)c2)n1CC1CCCCC1` [Example 50]: the pIC50 was less than 5.70.

As to `Cc1c(S(N)(=O)=O)cc(-c2cn(S(=O)(=O)c3ccccc3Cl)c3ccccc23)n1CC1CCCCC1` [Example 53, 5-(1-((2-Chlorophenyl)sulfonyl)-1H-indol-3-yl)-1-(cyclohexylmethyl)-2-methyl-1H-pyrrole-3-sulfonamide], the pIC50 under setting [1] is 5.70 to 6.30.
